Reference: the supplement of paper PMC10307832

How the values were obtained:
Experiment in all cases: relative viability (nuclei count vs DMSO), 5 days (fraction); higher = more cells survive
Daporinad + Olaparib = compound: O=C(/C=C/c1cccnc1)NCCCCC1CCN(C(=O)c2ccccc2)CC1 [Daporinad] + O=C(c1cc(Cc2n[nH]c(=O)c3ccccc23)ccc1F)N1CCN(C(=O)C2CC2)CC1 [Olaparib] (partner 8 µM)
How it was run: (§1)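 For relative viability, nuclei counts in treated wells were divided by those in vehicle wells. Lung cancer cell lines had been pin-tool dosed in 1536-well plates the day after seeding and cultured for 5 days, then fixed and stained in one step (final 0.05% Triton X-100, 1% formaldehyde, 1 ug/ml Hoechst) and imaged at 4×. Doses were one drug alone or a fixed anchor-drug dose plus five library-drug doses (not always all listed) in √10 steps, and values are duplicate-plate medians.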

R406 + Luminespib = compound: COc1cc(Nc2ncc(F)c(Nc3ccc4c(n3)NC(=O)C(C)(C)O4)n2)cc(OC)c1OC [R406] + CCNC(=O)c1noc(-c2cc(C(C)C)c(O)cc2O)c1-c1ccc(CN2CCOCC2)cc1 [Luminespib] (partner 0.01 µM)
How it was run: as §1

Daporinad + Pictilisib = compound: O=C(/C=C/c1cccnc1)NCCCCC1CCN(C(=O)c2ccccc2)CC1 [Daporinad] + CS(=O)(=O)N1CCN(Cc2cc3nc(-c4cccc5[nH]ncc45)nc(N4CCOCC4)c3s2)CC1 [Pictilisib] (partner 1 µM)
How it was run: as §1

R406 + Trametinib = compound: COc1cc(Nc2ncc(F)c(Nc3ccc4c(n3)NC(=O)C(C)(C)O4)n2)cc(OC)c1OC [R406] + CC(=O)Nc1cccc(-n2c(=O)n(C3CC3)c(=O)c3c(Nc4ccc(I)cc4F)n(C)c(=O)c(C)c32)c1 [Trametinib] (partner 0.02 µM)
How it was run: as §1

## HCC-827
Daporinad + Olaparib; first compound 0.0005 µM
  relative viability: 0.612
Daporinad + Olaparib; first compound 0.001581 µM
  relative viability: 0.728
Daporinad + Olaparib; first compound 0.005 µM
  relative viability: 0.608
Daporinad + Olaparib; first compound 0.01581 µM
  relative viability: 0.504
R406 + Luminespib; first compound 0.08 µM
  relative viability: 0.772
R406 + Luminespib; first compound 0.253 µM
  relative viability: 0.385
R406 + Luminespib; first compound 0.8 µM
  relative viability: 0.563
R406 + Luminespib; first compound 2.53 µM
  relative viability: 0.334
R406 + Luminespib; first compound 8 µM
  relative viability: 0.195
Daporinad + Pictilisib; first compound 0.0005 µM
  relative viability: 1.12
Daporinad + Pictilisib; first compound 0.001581 µM
  relative viability: 0.994
Daporinad + Pictilisib; first compound 0.005 µM
  relative viability: 1.23
Daporinad + Pictilisib; first compound 0.01581 µM
  relative viability: 1.01
R406 + Trametinib; first compound 0.08 µM
  relative viability: 0.564
R406 + Trametinib; first compound 0.253 µM
  relative viability: 0.578
R406 + Trametinib; first compound 0.8 µM
  relative viability: 0.517
R406 + Trametinib; first compound 2.53 µM
  relative viability: 0.399
R406 + Trametinib; first compound 8 µM
  relative viability: 0.383

## HOP-62
Daporinad + Olaparib; first compound 0.0005 µM
  relative viability: 0.258
Daporinad + Olaparib; first compound 0.001581 µM
  relative viability: 0.287
Daporinad + Olaparib; first compound 0.005 µM
  relative viability: 0.188
Daporinad + Olaparib; first compound 0.01581 µM
  relative viability: 0.15
R406 + Luminespib; first compound 0.08 µM
  relative viability: 0.858
R406 + Luminespib; first compound 0.253 µM
  relative viability: 1.01
R406 + Luminespib; first compound 0.8 µM
  relative viability: 0.901
R406 + Luminespib; first compound 2.53 µM
  relative viability: 0.95
R406 + Luminespib; first compound 8 µM
  relative viability: 0.947
Daporinad + Pictilisib; first compound 0.001581 µM
  relative viability: 0.846
Daporinad + Pictilisib; first compound 0.005 µM
  relative viability: 0.702
Daporinad + Pictilisib; first compound 0.01581 µM
  relative viability: 0.668
R406 + Trametinib; first compound 0.08 µM
  relative viability: 0.379
R406 + Trametinib; first compound 0.253 µM
  relative viability: 0.388
R406 + Trametinib; first compound 0.8 µM
  relative viability: 0.427
R406 + Trametinib; first compound 2.53 µM
  relative viability: 0.37
R406 + Trametinib; first compound 8 µM
  relative viability: 0.339

## IA-LM
Daporinad + Olaparib; first compound 0.0005 µM
  relative viability: 0.798
Daporinad + Olaparib; first compound 0.001581 µM
  relative viability: 0.766
Daporinad + Olaparib; first compound 0.005 µM
  relative viability: 0.707
Daporinad + Olaparib; first compound 0.01581 µM
  relative viability: 0.475
Daporinad + Pictilisib; first compound 0.0005 µM
  relative viability: 0.357
Daporinad + Pictilisib; first compound 0.001581 µM
  relative viability: 0.321
Daporinad + Pictilisib; first compound 0.005 µM
  relative viability: 0.308
Daporinad + Pictilisib; first compound 0.01581 µM
  relative viability: 0.307

## LC-2-ad
Daporinad + Olaparib; first compound 0.0005 µM
  relative viability: 0.664
Daporinad + Olaparib; first compound 0.001581 µM
  relative viability: 0.662
Daporinad + Olaparib; first compound 0.005 µM
  relative viability: 0.441
Daporinad + Olaparib; first compound 0.01581 µM
  relative viability: 0.398
R406 + Luminespib; first compound 0.08 µM
  relative viability: 0.982
R406 + Luminespib; first compound 0.253 µM
  relative viability: 1.13
R406 + Luminespib; first compound 0.8 µM
  relative viability: 0.916
R406 + Luminespib; first compound 2.53 µM
  relative viability: 0.456
R406 + Luminespib; first compound 8 µM
  relative viability: 0.42
Daporinad + Pictilisib; first compound 0.0005 µM
  relative viability: 0.389
Daporinad + Pictilisib; first compound 0.001581 µM
  relative viability: 0.514
Daporinad + Pictilisib; first compound 0.005 µM
  relative viability: 0.64
Daporinad + Pictilisib; first compound 0.01581 µM
  relative viability: 0.675
R406 + Trametinib; first compound 0.08 µM
  relative viability: 0.912
R406 + Trametinib; first compound 0.253 µM
  relative viability: 0.907
R406 + Trametinib; first compound 0.8 µM
  relative viability: 0.971
R406 + Trametinib; first compound 2.53 µM
  relative viability: 0.465
R406 + Trametinib; first compound 8 µM
  relative viability: 0.334

## LCLC-97TM1
Daporinad + Olaparib; first compound 0.0005 µM
  relative viability: 0.435
Daporinad + Olaparib; first compound 0.001581 µM
  relative viability: 0.322
Daporinad + Olaparib; first compound 0.005 µM
  relative viability: 0.201
Daporinad + Olaparib; first compound 0.01581 µM
  relative viability: 0.122
R406 + Luminespib; first compound 0.08 µM
  relative viability: 0.771
R406 + Luminespib; first compound 0.253 µM
  relative viability: 0.883
R406 + Luminespib; first compound 0.8 µM
  relative viability: 0.72
R406 + Luminespib; first compound 2.53 µM
  relative viability: 0.571
R406 + Luminespib; first compound 8 µM
  relative viability: 0.291
Daporinad + Pictilisib; first compound 0.0005 µM
  relative viability: 0.2
Daporinad + Pictilisib; first compound 0.001581 µM
  relative viability: 0.185
Daporinad + Pictilisib; first compound 0.005 µM
  relative viability: 0.284
Daporinad + Pictilisib; first compound 0.01581 µM
  relative viability: 0.26
R406 + Trametinib; first compound 0.08 µM
  relative viability: 0.218
R406 + Trametinib; first compound 0.253 µM
  relative viability: 0.23
R406 + Trametinib; first compound 0.8 µM
  relative viability: 0.226
R406 + Trametinib; first compound 2.53 µM
  relative viability: 0.174
R406 + Trametinib; first compound 8 µM
  relative viability: 0.194

## LCLC-103H
Daporinad + Olaparib; first compound 0.0005 µM
  relative viability: 0.877
Daporinad + Olaparib; first compound 0.001581 µM
  relative viability: 0.741
Daporinad + Olaparib; first compound 0.005 µM
  relative viability: 0.697
Daporinad + Olaparib; first compound 0.01581 µM
  relative viability: 0.688
R406 + Luminespib; first compound 0.08 µM
  relative viability: 0.843
R406 + Luminespib; first compound 0.253 µM
  relative viability: 1.05
R406 + Luminespib; first compound 0.8 µM
  relative viability: 1.23
R406 + Luminespib; first compound 2.53 µM
  relative viability: 0.701
R406 + Luminespib; first compound 8 µM
  relative viability: 0.663
Daporinad + Pictilisib; first compound 0.0005 µM
  relative viability: 0.693
Daporinad + Pictilisib; first compound 0.001581 µM
  relative viability: 0.649
Daporinad + Pictilisib; first compound 0.005 µM
  relative viability: 0.619
Daporinad + Pictilisib; first compound 0.01581 µM
  relative viability: 0.606
R406 + Trametinib; first compound 0.08 µM
  relative viability: 0.66
R406 + Trametinib; first compound 0.253 µM
  relative viability: 0.675
R406 + Trametinib; first compound 0.8 µM
  relative viability: 0.672
R406 + Trametinib; first compound 2.53 µM
  relative viability: 0.691
R406 + Trametinib; first compound 8 µM
  relative viability: 0.604

## LK-2
Daporinad + Olaparib; first compound 0.0005 µM
  relative viability: 0.657
Daporinad + Olaparib; first compound 0.001581 µM
  relative viability: 0.459
Daporinad + Olaparib; first compound 0.005 µM
  relative viability: 0.394
Daporinad + Olaparib; first compound 0.01581 µM
  relative viability: 0.28
R406 + Luminespib; first compound 0.08 µM
  relative viability: 0.187
R406 + Luminespib; first compound 0.253 µM
  relative viability: 0.198
R406 + Luminespib; first compound 0.8 µM
  relative viability: 0.169
R406 + Luminespib; first compound 2.53 µM
  relative viability: 0.163
R406 + Luminespib; first compound 8 µM
  relative viability: 0.197
Daporinad + Pictilisib; first compound 0.0005 µM
  relative viability: 0.605
Daporinad + Pictilisib; first compound 0.001581 µM
  relative viability: 0.689
Daporinad + Pictilisib; first compound 0.005 µM
  relative viability: 0.46
Daporinad + Pictilisib; first compound 0.01581 µM
  relative viability: 0.354
R406 + Trametinib; first compound 0.08 µM
  relative viability: 0.675
R406 + Trametinib; first compound 0.253 µM
  relative viability: 1
R406 + Trametinib; first compound 0.8 µM
  relative viability: 0.718
R406 + Trametinib; first compound 2.53 µM
  relative viability: 0.706
R406 + Trametinib; first compound 8 µM
  relative viability: 0.447

## LOU-NH91
Daporinad + Olaparib; first compound 0.0005 µM
  relative viability: 0.874
Daporinad + Olaparib; first compound 0.001581 µM
  relative viability: 0.977
Daporinad + Olaparib; first compound 0.005 µM
  relative viability: 0.803
Daporinad + Olaparib; first compound 0.01581 µM
  relative viability: 0.837
R406 + Luminespib; first compound 0.08 µM
  relative viability: 0.329
R406 + Luminespib; first compound 0.253 µM
  relative viability: 0.357
R406 + Luminespib; first compound 0.8 µM
  relative viability: 0.278
R406 + Luminespib; first compound 2.53 µM
  relative viability: 0.297
R406 + Luminespib; first compound 8 µM
  relative viability: 0.272
Daporinad + Pictilisib; first compound 0.0005 µM
  relative viability: 0.528
Daporinad + Pictilisib; first compound 0.001581 µM
  relative viability: 0.568
Daporinad + Pictilisib; first compound 0.005 µM
  relative viability: 0.587
Daporinad + Pictilisib; first compound 0.01581 µM
  relative viability: 0.577
R406 + Trametinib; first compound 0.08 µM
  relative viability: 0.804
R406 + Trametinib; first compound 0.253 µM
  relative viability: 0.8
R406 + Trametinib; first compound 0.8 µM
  relative viability: 0.759
R406 + Trametinib; first compound 2.53 µM
  relative viability: 0.621
R406 + Trametinib; first compound 8 µM
  relative viability: 0.549

## LU99A
Daporinad + Olaparib; first compound 0.0005 µM
  relative viability: 0.188
Daporinad + Olaparib; first compound 0.001581 µM
  relative viability: 0.198
Daporinad + Olaparib; first compound 0.005 µM
  relative viability: 0.199
Daporinad + Olaparib; first compound 0.01581 µM
  relative viability: 0.186
R406 + Luminespib; first compound 0.08 µM
  relative viability: 0.232
R406 + Luminespib; first compound 0.253 µM
  relative viability: 0.27
R406 + Luminespib; first compound 0.8 µM
  relative viability: 0.244
R406 + Luminespib; first compound 2.53 µM
  relative viability: 0.172
R406 + Luminespib; first compound 8 µM
  relative viability: 0.221
Daporinad + Pictilisib; first compound 0.0005 µM
  relative viability: 0.312
Daporinad + Pictilisib; first compound 0.001581 µM
  relative viability: 0.383
Daporinad + Pictilisib; first compound 0.005 µM
  relative viability: 0.392
Daporinad + Pictilisib; first compound 0.01581 µM
  relative viability: 0.306
R406 + Trametinib; first compound 0.08 µM
  relative viability: 0.532
R406 + Trametinib; first compound 0.253 µM
  relative viability: 0.522
R406 + Trametinib; first compound 0.8 µM
  relative viability: 0.56
R406 + Trametinib; first compound 2.53 µM
  relative viability: 0.458
R406 + Trametinib; first compound 8 µM
  relative viability: 0.358
